Here are results for seven compounds from US10662204B2 (PFIZER INC., priority 2018, dated 2020).

What is called IC50 is the concentration at which inhibition is half-maximal. A higher IC50 goes with weaker potency.

For experiment [1], the target named is T1, KRAS G12C (Homo sapiens, UniProt P01116, G12C). The experiment in a line: Cell Activity Assay: IC50 in H358 cells. Type of experiment: cell-based. The arrangement: endogenous in cells. On the procedure:
Compounds presented in the present invention lead to the accumulation of the GDP bound Ras upon treatment of human cancer cell line.
The accumulation of the GDP-bound KRAS G12C in cellular environment was measured based on the principle that KRAS G12C only binds to its downstream kinase; Raf-1 (MAP Kinase Kinase Kinase), when in its active-GTP bound state. In this state, Ras binded to a domain of Raf-1 kinase referred to as the Ras Binding Domain (RBD).
Raf-1 RBD (LJIC-1988A1) was diluted to 100 ng/well in PBS and 5 μl/well was spot coated onto MSD high bind SECTOR plates (L15XB). Plates were incubated at room temperature for 1 hour on an orbital shaker. Plates were washed with PBS/0.05% Tween-20 and 50 μl/well of thawed lysate samples were added, followed by 50 μl of 1% MSD Blocker A in PBS/0.05 Tween-20 (R93BA). Plates were incubated for 1 hour on an orbital shaker and washed with PBS/0.05% Tween-20. 25 μl/well of Anti-pan-Ras Antibody (Cell Biolabs 244003) diluted 1:3000 was added in 1% MSD Blocker A solution and plates were incubated for 1 hour on an orbital shaker and washed with PBS/0.05% Tween-20. SULFO-TAG goat anti-mouse secondary antibody (MSD R32AC) was diluted 1:500 in MSD Blocker A solution and added at 25 μL/well. Plates were incubated for 1 hour on an orbital shaker and washed with PBS/0.05% Tween-20. 150 μl/well of Read Buffer T (MSD R92TC) diluted 1:3 in H2O was added and plates were read on a Meso Scale Discovery Sector Imager S600.
KRAS signal was normalized to maximum inhibition and DMSO control values, and IC50 values were generated using a 4 parameter fit of the dose response curve. The decrease in IC50 reflects that the exemplary compound lead to a higher level of accumulation of GDP-bound KRAS G12C than another exemplary compounds at specific timepoint of treatment of cancer cell line.

In experiment [2] the target is T1, KRAS G12C. Briefly: Cell Activity Assay: accumulation of GDP-bound KRAS G12C in MIAPaCa-2 cells (Raf-1 RBD capture, MSD readout). Type of experiment: cell-based. The arrangement: endogenous in cells; host or cells: MIAPaCa-2. The following applies: 6 hours, assay limit is 30.00. The procedure, abridged: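 IC50 came from a 4-parameter fit of Ras signal normalized between DMSO and full-inhibition controls. Readout: lysate GTP-Ras bound to immobilized Raf-1 RBD, quantified with pan-Ras antibody and MSD electrochemiluminescence. Lysates derived from MIAPaCa-2 cells treated 6 h with serially diluted compound, 0.3% DMSO.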

In experiment [3] the target is T2, GDP-loaded KRAS (1-169) G12C, C51S, C80L, C118S (Homo sapiens, UniProt P01116, C118S/C51S/C80L/G12C).
T2 construct: GDP-loaded KRAS (1-169) G12C, C51S, C80L, C118S
Briefly: Mass Spectrometry Reactivity Assay (MSRA): covalent adduct of compound and KRAS G12C, Percent Modification. Type of experiment: binding. Particulars: for MSRA (% modification) 10 μM 0.25 hr / MSRA (% modification) 10 μM 0.50 hr: 10 μM compound; for MSRA (% modification) 5.0 μM 0.25 hr: 5.0 μM compound. The procedure, abridged:
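Covalent labelling is measured by intact mass: deconvoluted modified and unmodified peak intensities yield percent modification. Compound, usually 5 μM or 10 μM final, reacts at room temperature with 5 μM GDP-bound KRAS G12C (1-169, C51S/C80L/C118S) in Hepes pH 7.5/NaCl/glycerol, sampled at 1, 15, 30, 60 min.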

Each structure is given as a SMILES string.

Regarding `C=CC(=O)N1CCN(c2nc(OC[C@@H]3CCCN3C)nc3c(Oc4c(Cl)c(F)cc5[nH]ncc45)nc(Cl)cc23)CC1` [Example 01G, 1-[4-(6-chloro-8-[(5-chloro-6-fluoro-1H-indazol-4-yl)oxy]-2-{[(2S)-1-methylpyrrolidin-2-yl]methoxy}pyrido[3,4-d]pyrimidin-4-yl)piperazin-1-yl]prop-2-en-1-one], the IC50 against KRAS G12C [1] worked out at 0.06 µM; against KRAS G12C [2], 0.04 µM. Besides, the “MSRA (% modification) 10 μM 0.25 hr” value in experiment [3] was 82%.

`C=CC(=O)N1CCN(c2nc(OC[C@@H]3CCCN3C)nc3c(Oc4c(Cl)c(F)cc5[nH]ncc45)nccc23)CC1` [Example 01H, 1-[4-(8-[(5-chloro-6-fluoro-1H-indazol-4-yl)oxy]-2-{[(2S)-1-methylpyrrolidin-2-yl]methoxy}pyrido[3,4-d]pyrimidin-4-yl)piperazin-1-yl]prop-2-en-1-one] displayed an IC50 at KRAS G12C [1] of 0.191 µM. In addition, at KRAS G12C [2], half-maximal inhibition (IC50) required 0.117 µM. In experiment [3], the “MSRA (% modification) 5.0 μM 0.25 hr” value is listed as 66% and the “MSRA (% modification) 10 μM 0.25 hr” value amounted to 81%.

For `C=CC(=O)N1CCN(c2nc(N3CC(N(C)C)C3)nc3c(Oc4c(C)ccc5[nH]ncc45)nccc23)CC1` [Example 02B, 1-(4-{2-[3-(dimethylamino)azetidin-1-yl]-8-[(5-methyl-1H-indazol-4-yl)oxy]pyrido[3,4-d]pyrimidin-4-yl}piperazin-1-yl)prop-2-en-1-one], the IC50 on KRAS G12C [1] came to 8.2 µM; at KRAS G12C [2], 7.84 µM. In addition, the “MSRA (% modification) 10 μM 0.50 hr” value in experiment [3] was 30%.

`C=CC(=O)N1CCN(c2nc(OC[C@@H]3CCCN3C)nc3c(Oc4c(C)ccc5[nH]ncc45)cccc23)CC1` [Example 07E, 1-[4-(8-[(5-methyl-1H-indazol-4-yl)oxy]-2-{[(2S)-1-methylpyrrolidin-2-yl]methoxy}quinazolin-4-yl)piperazin-1-yl]prop-2-en-1-one] had an IC50 at KRAS G12C [1] of 0.501 µM. This compound gave an IC50 on KRAS G12C [2] of 0.23 µM. Also, in experiment [3], the “MSRA (% modification) 5.0 μM 0.25 hr” value amounted to 67%, the “MSRA (% modification) 10 μM 0.25 hr” value was determined as 79% and the “MSRA (% modification) 10 μM 0.50 hr” value turned out to be 82%.

On to `C=CC(=O)N1CCN(c2nc(OC[C@@H]3CCCN3C)nc3c(Oc4c(Cl)ccc5[nH]ncc45)nc(Cl)cc23)CC1` [Example 09G, 1-[4-(6-chloro-8-[(5-chloro-1H-indazol-4-yl)oxy]-2-{[(2S)-1-methylpyrrolidin-2-yl]methoxy}pyrido[3,4-d]pyrimidin-4-yl)piperazin-1-yl]prop-2-en-1-one], for which the results for the IC50 at KRAS G12C [1] and at KRAS G12C [2] were 0.123 µM and 0.069 µM, respectively. Further, in experiment [3], the “MSRA (% modification) 10 μM 0.25 hr” value came out at 81%.

For `C=CC(=O)N1CCN(c2ncnc3c(Oc4c(Cl)c(C)cc5[nH]ncc45)nccc23)CC1` [Example 11A, 1-(4-{8-[(5-chloro-6-methyl-1H-indazol-4-yl)oxy]pyrido[3,4-d]pyrimidin-4-yl}piperazin-1-yl)prop-2-en-1-one], the 50% inhibitory concentration (IC50) against KRAS G12C [1] was 2.56 µM. The compound also displayed an IC50 against KRAS G12C [2] of 0.892 µM. In addition, in experiment [3], the “MSRA (% modification) 10 μM 0.25 hr” value came to 44% and the “MSRA (% modification) 10 μM 0.50 hr” value is on record as 68%.

As for `C=CC(=O)N1CCN(c2nc(OCC3CCCO3)nc3c(Oc4c(Cl)c(F)cc5[nH]ncc45)nc(Cl)cc23)CC1` (stereo not shown) [Example 11G, 1-(4-{6-chloro-8-[(5-chloro-6-fluoro-1H-indazol-4-yl)oxy]-2-(tetrahydrofuran-2-ylmethoxy)pyrido[3,4-d]pyrimidin-4-yl}piperazin-1-yl)prop-2-en-1-one], the IC50 on KRAS G12C [1] came to 0.448 µM; against KRAS G12C [2], 0.102 µM. In experiment [3], the “MSRA (% modification) 10 μM 0.25 hr” value is 77%.
